Consider 19 molecules from patent publication US9505749B2, “Quinazolinone compounds and derivatives thereof” (AMGEN INC., priority 2012, dated 2016).

Structures are written as SMILES.

For assay [1], the system named is Axin2 accumulation in SW480 cells. In words: Axin2 384 immunofluorescence assay. The class given is cell-based. As to conditions: Homo sapiens; SW480 cells, 24 hours; read-out: Axin2 384 IF EC50.
A further assay addresses PARP2 (Homo sapiens (Human), UniProt Q9UGN5). Description: PARP2 biochemical assay (BPS kit).
The target in assay [2] is 6×HIS-tankyrase 2 (946-1162) (Homo sapiens (Human), UniProt Q9H2K2). In words: Tankyrase 2 biochemical assay (AlphaLisa, PARsylation). Particulars: 250 nM NAD; read-out: TNKS2 IC50. On the technique in general: In Alpha technology, singlet oxygen from a donor bead excites a nearby acceptor bead.
The next assay concerns the target PARP1 (Homo sapiens (Human), UniProt P09874). In words: PARP1 biochemical assay (Trevigen kit). The source says: PARP1 biochemical assay was purchased as a kit from Trevigen (cat.#4676-096-K) and used per manufacturers recommendations.
For assay [3], the target named is 6×HIS-tankyrase1 (1091-1325) (Homo sapiens (Human), UniProt O95271). In words: Tankyrase 1 biochemical assay (AlphaLisa, PARsylation). Particulars: 400 nM NAD, 60 minutes at RT; read-out: TNKS1 IC50.
In assay [4] the test system is total β-catenin in SW480 colorectal cells. Description: Total β-catenin MSD 96-well plate assay for SW480 cells. Particulars: Homo sapiens, SW480, read-out: SW480-Total beta-catenin (TBC) IC50 IP.

Chain of PARP2 (Q9UGN5 whole entry): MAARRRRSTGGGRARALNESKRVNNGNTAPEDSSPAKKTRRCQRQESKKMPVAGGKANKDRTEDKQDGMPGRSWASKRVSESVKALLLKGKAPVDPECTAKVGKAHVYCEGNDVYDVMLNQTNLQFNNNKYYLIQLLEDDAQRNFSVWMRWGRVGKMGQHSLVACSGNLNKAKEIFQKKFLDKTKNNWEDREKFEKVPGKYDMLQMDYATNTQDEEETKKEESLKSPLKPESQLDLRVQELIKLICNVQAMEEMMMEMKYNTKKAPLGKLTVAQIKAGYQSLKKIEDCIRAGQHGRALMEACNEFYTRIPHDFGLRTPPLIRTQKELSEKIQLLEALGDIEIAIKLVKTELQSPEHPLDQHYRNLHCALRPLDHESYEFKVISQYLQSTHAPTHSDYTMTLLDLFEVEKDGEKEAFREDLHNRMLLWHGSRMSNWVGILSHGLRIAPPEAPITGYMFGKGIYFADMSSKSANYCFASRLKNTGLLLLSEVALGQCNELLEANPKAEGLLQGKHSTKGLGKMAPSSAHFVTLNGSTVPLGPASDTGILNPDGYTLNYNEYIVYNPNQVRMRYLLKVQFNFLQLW
Chain of 6×HIS-tankyrase1 (1091-1325) (O95271 1091-1325): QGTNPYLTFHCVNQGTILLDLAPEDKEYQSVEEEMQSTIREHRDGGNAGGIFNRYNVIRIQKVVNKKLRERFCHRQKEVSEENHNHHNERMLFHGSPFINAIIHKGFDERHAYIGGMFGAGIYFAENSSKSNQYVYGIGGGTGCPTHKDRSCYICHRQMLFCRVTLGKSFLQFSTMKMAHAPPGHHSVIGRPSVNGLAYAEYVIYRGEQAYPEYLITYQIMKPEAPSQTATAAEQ
Chain of PARP1 (P09874 whole entry): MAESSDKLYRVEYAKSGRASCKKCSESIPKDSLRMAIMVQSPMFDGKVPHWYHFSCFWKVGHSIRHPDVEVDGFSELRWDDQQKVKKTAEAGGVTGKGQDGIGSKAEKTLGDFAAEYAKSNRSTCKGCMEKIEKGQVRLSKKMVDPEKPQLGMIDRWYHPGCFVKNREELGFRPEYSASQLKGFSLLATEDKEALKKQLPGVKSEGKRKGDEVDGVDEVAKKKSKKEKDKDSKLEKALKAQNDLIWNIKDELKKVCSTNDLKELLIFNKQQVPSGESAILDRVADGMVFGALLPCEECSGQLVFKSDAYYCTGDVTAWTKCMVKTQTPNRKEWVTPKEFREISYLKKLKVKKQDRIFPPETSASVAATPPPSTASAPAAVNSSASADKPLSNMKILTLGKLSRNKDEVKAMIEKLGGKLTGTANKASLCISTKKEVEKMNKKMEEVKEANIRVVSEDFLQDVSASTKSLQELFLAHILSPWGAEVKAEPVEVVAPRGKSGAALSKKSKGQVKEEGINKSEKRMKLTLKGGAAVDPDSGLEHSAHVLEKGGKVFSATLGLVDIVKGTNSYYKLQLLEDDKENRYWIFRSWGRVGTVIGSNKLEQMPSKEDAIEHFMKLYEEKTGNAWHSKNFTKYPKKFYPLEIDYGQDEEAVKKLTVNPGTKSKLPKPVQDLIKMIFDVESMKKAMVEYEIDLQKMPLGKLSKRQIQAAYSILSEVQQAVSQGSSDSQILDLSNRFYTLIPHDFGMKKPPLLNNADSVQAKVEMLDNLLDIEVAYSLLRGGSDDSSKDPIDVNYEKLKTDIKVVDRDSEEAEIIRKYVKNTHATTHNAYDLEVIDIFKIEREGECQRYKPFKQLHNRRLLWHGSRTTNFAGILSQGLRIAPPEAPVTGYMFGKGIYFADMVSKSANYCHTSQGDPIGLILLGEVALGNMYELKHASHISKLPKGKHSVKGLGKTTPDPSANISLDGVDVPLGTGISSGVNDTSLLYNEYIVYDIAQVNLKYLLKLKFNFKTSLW
Chain of 6×HIS-tankyrase 2 (946-1162) (Q9H2K2 946-1162): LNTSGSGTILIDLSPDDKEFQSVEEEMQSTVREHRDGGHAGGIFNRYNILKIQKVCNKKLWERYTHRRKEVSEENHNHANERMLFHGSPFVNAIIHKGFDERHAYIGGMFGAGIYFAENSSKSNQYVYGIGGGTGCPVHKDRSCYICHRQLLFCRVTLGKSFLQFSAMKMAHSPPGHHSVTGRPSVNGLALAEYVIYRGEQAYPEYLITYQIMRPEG

As a reminder, the EC50 is the concentration needed to bring the measured effect to its halfway point. The IC50 is the concentration needed to halve the response being measured. As to `O=C(CCCc1nc2ccccc2c(=O)[nH]1)N1CCC(c2nnc(-c3cccnc3)o2)CC1` [Example 13, 2-(4-oxo-4-(4-(5-(3-pyridinyl)-1,3,4-oxadiazol-2-yl)-1-piperidinyl)butyl)-4(3H)-quinazolinone], the EC50 in assay [1] came out at 461 nM. Besides, the IC50 on PARP2 was determined as 1240 nM; in assay [2], 6.54 nM; against PARP1 it was 7090 nM; in assay [3] it was 42.8 nM; in assay [4], 358 nM.

In the case of `O=C(CCCc1nc2ccccc2c(=O)[nH]1)N1CCC(c2nnc(-c3cnccn3)o2)CC1` [Example 14, 2-(4-oxo-4-(4-(5-(2-pyrazinyl)-1,3,4-oxadiazol-2-yl)-1-piperidinyl)butyl)-4(3H)-quinazolinone], the EC50 in assay [1] was found to be 1250 nM. Besides, the IC50 against PARP2 was found to be 2180 nM; in assay [2], 15.5 nM; on PARP1, 8540 nM; in assay [3], 79.7 nM; in assay [4], 837 nM.

For `COc1ccc(-c2nnc(C3CCN(C(=O)CCCc4nc5ccccc5c(=O)[nH]4)CC3)o2)cc1` [Example 15, 2-(4-(4-(5-(4-methoxyphenyl)-1,3,4-oxadiazol-2-yl)-1-piperidinyl)-4-oxobutyl)-4(3H)-quinazolinone], the EC50 in assay [1] came out at 126 nM. Further, the IC50 against PARP2 is 1200 nM; in assay [2] it was 3.35 nM; at PARP1 it was 3170 nM; in assay [3], 15 nM; in assay [4], 86.9 nM.

As for `O=C(CCCc1nc2ccccc2c(=O)[nH]1)N1CCC(c2nnc(-c3ccccc3Cl)o2)CC1` [Example 16, 2-(4-(4-(5-(2-chlorophenyl)-1,3,4-oxadiazol-2-yl)-1-piperidinyl)-4-oxobutyl)-4(3H)-quinazolinone], the EC50 in assay [1] was determined as 1900 nM. The IC50 on PARP2 turned out to be 560 nM; in assay [2], 17.9 nM; on PARP1 it was 5070 nM; in assay [3] it was 107 nM; in assay [4], 1190 nM.

For the molecule `O=C(CCCc1nc2ccccc2c(=O)[nH]1)N1CCC(c2nnc(COc3ccc(Cl)cc3)o2)CC1` [Example 17, 2-(4-(4-(5-((4-chlorophenoxy)methyl)-1,3,4-oxadiazol-2-yl)-1-piperidinyl)-4-oxobutyl)-4(3H)-quinazolinone], the EC50 in assay [1] came out at 6390 nM. The IC50 against PARP2 worked out at 916 nM; in assay [2], 152 nM; on PARP1, 3790 nM; in assay [3], 646 nM; in assay [4], 2190 nM.

Regarding `O=C(CCCc1nc2ccccc2c(=O)[nH]1)N1CCC(c2nnc(-c3ccccc3F)o2)CC1` [Example 18, 2-(4-(4-(5-(2-fluorophenyl)-1,3,4-oxadiazol-2-yl)-1-piperidinyl)-4-oxobutyl)-4(3H)-quinazolinone], the EC50 in assay [1] was found to be 732 nM. Moreover, the IC50 against PARP2 was determined as 1120 nM; in assay [2] it was 20.9 nM; on PARP1, 4470 nM; in assay [3], 54.4 nM; in assay [4] it was 760 nM.

Take `O=C(CCCc1nc2ccccc2c(=O)[nH]1)N1CCC(c2nnc(-c3ccncc3)o2)CC1` [Example 19, 2-(4-oxo-4-(4-(5-(4-pyridinyl)-1,3,4-oxadiazol-2-yl)-1-piperidinyl)butyl)-4(3H)-quinazolinone]: the EC50 in assay [1] came out at 291 nM. The IC50 on PARP2 came to 1120 nM; in assay [2] it was 4.86 nM; at PARP1, 4920 nM; in assay [3], 15 nM; in assay [4], 248 nM.

As to `N#Cc1cccc(-c2nnc(C3CCN(C(=O)CCCc4nc5ccccc5c(=O)[nH]4)CC3)o2)c1` [Example 20, 3-(5-(1-(4-(4-oxo-3,4-dihydroquinazolin-2-yl)butanoyl)piperidin-4-yl)-1,3,4-oxadiazol-2-yl)benzonitrile], the EC50 in assay [1] came out at 166 nM. Besides, the IC50 against PARP2 was 370 nM; in assay [2], 3.19 nM; on PARP1, 2850 nM; in assay [3] it was 11.3 nM; in assay [4] it was 151 nM.

For `N#Cc1ccc(-c2nnc(C3CCN(C(=O)CCCc4nc5ccccc5c(=O)[nH]4)CC3)o2)cc1` [Example 21, 4-(5-(1-(4-(4-oxo-3,4-dihydroquinazolin-2-yl)butanoyl)piperidin-4-yl)-1,3,4-oxadiazol-2-yl)benzonitrile], the EC50 in assay [1] came out at 242 nM. In addition, the IC50 at PARP2 amounted to 1450 nM; in assay [2], 4.89 nM; against PARP1 it was 2030 nM; in assay [3], 17.1 nM; in assay [4], 154 nM.

In the case of `Cc1cccc(-c2nnc(C3CCN(C(=O)CCCc4nc5ccccc5c(=O)[nH]4)CC3)o2)c1` [Example 22, 2-(4-oxo-4-(4-(5-(m-tolyl)-1,3,4-oxadiazol-2-yl)piperidin-1-yl)butyl)quinazolin-4(3H)-one], the EC50 in assay [1] was 333 nM. For the same molecule, the IC50 against PARP2 is 1590 nM; in assay [2], 4.13 nM; at PARP1, 3130 nM; in assay [3], 19.4 nM; in assay [4] it was 217 nM.

Turning to `Cc1ccc(-c2nnc(C3CCN(C(=O)CCCc4nc5ccccc5c(=O)[nH]4)CC3)o2)cc1` [Example 23, 2-(4-oxo-4-(4-(5-(p-tolyl)-1,3,4-oxadiazol-2-yl)piperidin-1-yl)butyl)quinazolin-4(3H)-one], in assay [1], the EC50 worked out at 601 nM. Moreover, the IC50 at PARP2 was determined as 455 nM; in assay [2], 6.31 nM; against PARP1 it was 3300 nM; in assay [3] it was 656 nM; in assay [4], 152 nM.

As to `COc1cccc(-c2nnc(C3CCN(C(=O)CCCc4nc5ccccc5c(=O)[nH]4)CC3)o2)c1` [Example 24, 2-(4-(4-(5-(3-methoxyphenyl)-1,3,4-oxadiazol-2-yl)piperidin-1-yl)-4-oxobutyl)quinazolin-4(3H)-one], the EC50 in assay [1] was determined as 257 nM. Moreover, the IC50 worked out at 1110 nM against PARP2; 4.95 nM in assay [2]; 1690 nM against PARP1; 18.8 nM in assay [3]; 226 nM in assay [4].

For `O=C(CCCc1nc2ccccc2c(=O)[nH]1)N1CCC(c2nnc(-c3ccc(F)c(Cl)c3)o2)CC1` [Example 25, 2-(4-(4-(5-(3-chloro-4-fluorophenyl)-1,3,4-oxadiazol-2-yl)piperidin-1-yl)-4-oxobutyl)quinazolin-4(3H)-one], the EC50 in assay [1] stood at 240 nM. The IC50 against PARP2 was found to be 1360 nM; in assay [2], 3.91 nM; against PARP1, 2300 nM; in assay [3] it was 9.61 nM; in assay [4], 224 nM.

In the case of `O=C(CCCc1nc2ccccc2c(=O)[nH]1)N1CCC(n2c(=O)[nH]c3cccnc32)CC1` [Example 26, 2-(4-oxo-4-(4-(2-oxo-1,2-dihydro-3H-imidazo[4,5-b]pyridin-3-yl)-1-piperidinyl)butyl)-4(3H)-quinazolinone], the EC50 in assay [1] is 1410 nM. Besides, the IC50 against PARP2 was found to be 397 nM; in assay [2], 1.51 nM; at PARP1 it was 4930 nM; in assay [3], 5.07 nM; in assay [4], 361 nM.

`O=C(CCCc1nc2ccccc2c(=O)[nH]1)N1CCC(n2c(=O)[nH]c3cc(Cl)ccc32)CC1` [Example 27, 2-(4-(4-(5-chloro-2-oxo-2,3-dihydro-1H-benzimidazol-1-yl)-1-piperidinyl)-4-oxobutyl)-4(3H)-quinazolinone]: in assay [1], the EC50 is 114 nM. Further, the IC50 at PARP2 was determined as 99.7 nM; in assay [2], 0.478 nM; on PARP1, 887 nM; in assay [3], 1.34 nM; in assay [4], 63.7 nM.

In the case of `O=C(CCCc1nc2ccccc2c(=O)[nH]1)N[C@H]1CC[C@H](c2nnc(-c3ccc(Cl)cc3)o2)CC1` [Example 29, N-(trans-4-(5-(4-chlorophenyl)-1,3,4-oxadiazol-2-yl)cyclohexyl)-4-(4-oxo-3,4-dihydro-2-quinazolinyl)butanamide], the EC50 in assay [1] was 30.2 nM. For the same molecule, the IC50 against PARP2 came to 889 nM; in assay [2], 0.43 nM; against PARP1, 1670 nM; in assay [3] it was 0.549 nM; in assay [4] it was 14.9 nM.

Regarding `COc1ccc(-c2nnc([C@H]3CC[C@H](NC(=O)CCCc4nc5ccccc5c(=O)[nH]4)CC3)o2)cc1` [Example 30, N-(trans-4-(5-(4-methoxyphenyl)-1,3,4-oxadiazol-2-yl)cyclohexyl)-4-(4-oxo-3,4-dihydro-2-quinazolinyl)butanamide], the EC50 in assay [1] is 13.9 nM. Besides, the IC50 against PARP2 is 1270 nM; in assay [2] it was 0.191 nM; on PARP1 it was 1060 nM; in assay [3] it was 0.567 nM; in assay [4] it was 10.6 nM.

For the molecule `O=C(CCCc1nc2ccccc2c(=O)[nH]1)N[C@H]1CC[C@H](c2nnc(-c3cccc(F)c3)o2)CC1` [Example 31, N-(trans-4-(5-(3-fluorophenyl)-1,3,4-oxadiazol-2-yl)cyclohexyl)-4-(4-oxo-3,4-dihydro-2-quinazolinyl)butanamide], the EC50 in assay [1] was 30.9 nM. Moreover, the IC50 is 1150 nM against PARP2; 0.237 nM in assay [2]; 1050 nM at PARP1; 0.469 nM in assay [3]; 24.8 nM in assay [4].

As for `COc1cccc(-c2nnc([C@H]3CC[C@H](NC(=O)CCCc4nc5ccccc5c(=O)[nH]4)CC3)o2)c1` [Example 32, N-(trans-4-(5-(3-methoxyphenyl)-1,3,4-oxadiazol-2-yl)cyclohexyl)-4-(4-oxo-3,4-dihydro-2-quinazolinyl)butanamide], the EC50 in assay [1] is 32.5 nM. Moreover, the IC50 against PARP2 is 828 nM; in assay [2], 0.301 nM; at PARP1, 801 nM; in assay [3] it was 0.495 nM; in assay [4] it was 15.7 nM.
